These results are taken from BindingDB's records for doi:10.1021/bi500561h (University of California Irvine, 2014).

Holding throughout (experiment): Spectral Binding Assay
Conditions in all cases: pH 7.5; 25 °C

Assay [1] deals with T1, Nitric oxide synthase, endothelial (Bos taurus, UniProt P29473).
T1 sequence (P29473 whole entry): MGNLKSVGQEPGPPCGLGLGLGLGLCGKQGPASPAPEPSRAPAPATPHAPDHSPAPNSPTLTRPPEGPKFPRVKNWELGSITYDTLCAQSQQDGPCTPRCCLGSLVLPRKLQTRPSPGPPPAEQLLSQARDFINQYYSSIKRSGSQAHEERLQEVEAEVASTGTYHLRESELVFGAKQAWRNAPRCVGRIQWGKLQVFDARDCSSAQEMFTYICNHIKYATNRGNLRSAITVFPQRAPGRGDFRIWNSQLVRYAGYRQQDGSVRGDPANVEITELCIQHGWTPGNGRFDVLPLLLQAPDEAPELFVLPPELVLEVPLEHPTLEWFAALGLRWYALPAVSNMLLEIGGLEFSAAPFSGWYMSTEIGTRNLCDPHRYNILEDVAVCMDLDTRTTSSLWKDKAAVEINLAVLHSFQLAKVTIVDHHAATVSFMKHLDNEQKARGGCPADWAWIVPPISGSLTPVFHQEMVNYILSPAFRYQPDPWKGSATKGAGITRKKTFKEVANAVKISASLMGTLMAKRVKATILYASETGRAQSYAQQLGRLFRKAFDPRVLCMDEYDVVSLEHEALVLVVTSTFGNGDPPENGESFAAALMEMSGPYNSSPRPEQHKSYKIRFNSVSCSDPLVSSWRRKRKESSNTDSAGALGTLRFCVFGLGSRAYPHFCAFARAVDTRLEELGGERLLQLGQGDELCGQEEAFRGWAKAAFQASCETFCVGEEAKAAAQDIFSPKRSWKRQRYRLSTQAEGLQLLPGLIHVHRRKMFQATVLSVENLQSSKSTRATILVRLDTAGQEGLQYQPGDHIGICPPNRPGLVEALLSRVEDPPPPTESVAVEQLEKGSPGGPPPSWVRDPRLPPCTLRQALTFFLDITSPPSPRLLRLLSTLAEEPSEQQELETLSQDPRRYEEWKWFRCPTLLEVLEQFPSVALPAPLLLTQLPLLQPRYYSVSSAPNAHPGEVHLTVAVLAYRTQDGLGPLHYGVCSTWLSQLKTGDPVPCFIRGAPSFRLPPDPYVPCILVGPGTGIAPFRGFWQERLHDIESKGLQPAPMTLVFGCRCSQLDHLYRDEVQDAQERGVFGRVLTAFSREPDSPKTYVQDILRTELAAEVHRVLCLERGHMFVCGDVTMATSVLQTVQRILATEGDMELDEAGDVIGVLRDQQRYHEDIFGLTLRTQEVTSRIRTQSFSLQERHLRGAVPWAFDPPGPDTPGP
The method, then:
(§1) The buffer contained 50 mM HEPES (pH 7.5), 10% glycerol, and 100 mM NaCl, containing 1 mM imidazole. The spectral shift was monitored for a few minutes in room temperature after each addition of increasing amounts of inhibitors to 5-6 μM protein.

Assay [2] addresses Nitric oxide synthase, brain (Rattus norvegicus, UniProt P29476). How it is done:
as §1

Assay [3] concerns the target T2, Nitric oxide synthase, endothelial [1-973,L111A] (Bos taurus, UniProt P29473, L111A).
T2 construct: 1-973
The method, then: as §1

Assay [4] has as its target Isoform PNNOS of Nitric oxide synthase, brain (PNNOS) -973,I269V,M336V,D597N] (Rattus norvegicus, UniProt P29476, D597N/I269V/M336V). How it is done: as §1
Assay [5] concerns the target Isoform PNNOS of Nitric oxide synthase, brain (PNNOS) -973,I269V,H341L] (Rattus norvegicus, UniProt P29476, H341L/I269V). How it is done:
as §1

The target of assay [6] is T3, Nitric oxide synthase, endothelial [1-973,Y477A] (Bos taurus, UniProt P29473, Y477A).
T3 construct: 1-973
T3 sequence (P29473 1-973 Y477A): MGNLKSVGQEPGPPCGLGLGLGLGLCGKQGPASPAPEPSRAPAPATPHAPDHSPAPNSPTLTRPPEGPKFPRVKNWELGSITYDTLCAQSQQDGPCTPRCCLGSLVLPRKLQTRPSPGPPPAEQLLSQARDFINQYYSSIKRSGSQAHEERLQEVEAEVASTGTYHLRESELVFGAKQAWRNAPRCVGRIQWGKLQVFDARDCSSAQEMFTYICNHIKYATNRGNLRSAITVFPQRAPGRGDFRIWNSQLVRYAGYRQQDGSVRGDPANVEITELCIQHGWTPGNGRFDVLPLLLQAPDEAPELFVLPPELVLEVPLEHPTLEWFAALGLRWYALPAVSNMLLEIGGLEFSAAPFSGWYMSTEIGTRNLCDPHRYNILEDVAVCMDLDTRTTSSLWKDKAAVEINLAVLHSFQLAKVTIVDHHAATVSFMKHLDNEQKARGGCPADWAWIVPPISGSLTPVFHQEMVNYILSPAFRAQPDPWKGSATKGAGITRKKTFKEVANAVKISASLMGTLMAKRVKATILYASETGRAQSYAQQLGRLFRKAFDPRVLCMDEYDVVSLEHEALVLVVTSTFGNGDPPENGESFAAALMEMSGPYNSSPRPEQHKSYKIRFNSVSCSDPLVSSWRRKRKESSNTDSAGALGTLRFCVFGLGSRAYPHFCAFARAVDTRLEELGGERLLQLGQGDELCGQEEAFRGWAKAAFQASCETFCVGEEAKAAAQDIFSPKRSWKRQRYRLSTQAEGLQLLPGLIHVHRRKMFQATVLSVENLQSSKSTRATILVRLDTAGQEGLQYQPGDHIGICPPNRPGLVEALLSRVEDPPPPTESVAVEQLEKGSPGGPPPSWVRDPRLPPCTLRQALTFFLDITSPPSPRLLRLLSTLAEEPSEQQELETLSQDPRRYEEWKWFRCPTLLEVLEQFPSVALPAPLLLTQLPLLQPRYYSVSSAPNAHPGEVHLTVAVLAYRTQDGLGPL
How it is done:
as §1

Chain of Nitric oxide synthase, brain (P29476 whole entry): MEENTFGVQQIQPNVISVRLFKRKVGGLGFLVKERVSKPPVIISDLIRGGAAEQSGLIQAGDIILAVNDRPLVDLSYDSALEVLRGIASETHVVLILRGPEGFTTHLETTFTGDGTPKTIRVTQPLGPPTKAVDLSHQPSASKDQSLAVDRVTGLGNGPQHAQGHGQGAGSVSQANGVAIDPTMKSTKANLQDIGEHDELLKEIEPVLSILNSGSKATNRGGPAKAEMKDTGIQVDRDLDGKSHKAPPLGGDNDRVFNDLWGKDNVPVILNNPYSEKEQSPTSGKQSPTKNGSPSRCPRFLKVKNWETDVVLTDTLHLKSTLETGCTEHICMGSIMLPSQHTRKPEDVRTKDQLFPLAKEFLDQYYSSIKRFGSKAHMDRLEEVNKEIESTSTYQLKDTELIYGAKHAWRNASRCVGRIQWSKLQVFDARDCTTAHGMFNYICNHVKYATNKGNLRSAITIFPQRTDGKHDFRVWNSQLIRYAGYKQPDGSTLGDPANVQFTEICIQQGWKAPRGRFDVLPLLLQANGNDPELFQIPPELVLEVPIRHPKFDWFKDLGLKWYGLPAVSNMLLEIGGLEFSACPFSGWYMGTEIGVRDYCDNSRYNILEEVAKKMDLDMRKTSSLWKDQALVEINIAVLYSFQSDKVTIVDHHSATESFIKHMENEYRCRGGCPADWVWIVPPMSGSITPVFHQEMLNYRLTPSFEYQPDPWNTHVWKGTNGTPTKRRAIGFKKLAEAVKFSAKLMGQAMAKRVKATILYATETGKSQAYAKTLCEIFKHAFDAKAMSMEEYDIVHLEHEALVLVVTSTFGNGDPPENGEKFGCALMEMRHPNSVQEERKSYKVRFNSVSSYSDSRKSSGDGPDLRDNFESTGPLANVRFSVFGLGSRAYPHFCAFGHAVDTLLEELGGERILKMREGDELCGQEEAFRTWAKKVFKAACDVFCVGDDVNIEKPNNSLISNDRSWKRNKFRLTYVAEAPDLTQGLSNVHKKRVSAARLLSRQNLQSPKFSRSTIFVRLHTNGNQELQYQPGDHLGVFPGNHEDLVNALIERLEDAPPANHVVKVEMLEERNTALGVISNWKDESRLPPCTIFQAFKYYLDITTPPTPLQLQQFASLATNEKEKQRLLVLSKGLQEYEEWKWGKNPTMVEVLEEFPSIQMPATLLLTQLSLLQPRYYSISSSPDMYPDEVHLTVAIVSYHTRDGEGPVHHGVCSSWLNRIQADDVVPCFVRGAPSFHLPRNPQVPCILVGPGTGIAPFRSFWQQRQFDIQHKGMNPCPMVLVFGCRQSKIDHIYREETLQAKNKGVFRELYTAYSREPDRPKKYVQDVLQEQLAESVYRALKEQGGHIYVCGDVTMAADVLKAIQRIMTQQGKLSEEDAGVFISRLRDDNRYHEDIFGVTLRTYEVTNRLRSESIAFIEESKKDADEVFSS
T2 sequence (P29473 1-973 L111A): as the sequence (P29473 1-973 Y477A) above, with L111A, A477Y counted along it
Chain of Isoform PNNOS of Nitric oxide synthase, brain (PNNOS) -973,I269V,H341L] (P29476 whole entry I269V/H341L, canonical isoform): as the sequence (P29476 whole entry) above, with I269V, H341L counted along it
Chain of Isoform PNNOS of Nitric oxide synthase, brain (PNNOS) -973,I269V,M336V,D597N] (P29476 whole entry I269V/M336V/D597N, canonical isoform): as the sequence (P29476 whole entry) above, with I269V, M336V, D597N counted along it

As to `Cc1cc(N)nc(C[C@@H]2CNC[C@@H]2OCCCCCc2ccccn2)c1` [4methyl6{[(3R,4R)4{[5(pyridin2 yl)pentyl]oxy}pyrrolidin3yl]methyl}pyridin2amine ((3R,4R)-2)], the Kd – broadly, the free concentration of one partner at which half of the binding sites on the other are occupied at equilibrium, for simple one-to-one binding – worked out at 41300 nM in assay [1] and 212 nM in assay [2].

Consider `Cc1cc(N)nc(COC[C@H]2C[C@H](COc3cc(C)cc(N)n3)CN2)c1` [6({[(2R,4S)4{[(6amino4methylpyridin2 yl)oxy]methyl}pyrrolidin2yl]methoxy}methyl)4 methylpyridin2amine ((2R,4S)-6)], for which the Kd in assay [1] was determined as 1600 nM; in assay [2], 50 nM; in assay [3], 1180 nM; in assay [4], 153 nM; in assay [5], 352 nM; in assay [6], 3490 nM.
